# In paper PMC7520419 (The AAPS Journal, 2020):
# Where a name gives a salt, the structure may show the parent alone. Read-outs that look alike come from different tables or passages of the source.
# How the values were obtained:
# [1] = parameters: Food Effect (graded symbols): key to the marks not given beside the values; settings: cited from earlier work
# [2] = Effective human jejunum permeability (Peff,man) used in the PBPK model; type: in vitro ADME
# Procedure: Permeation rates of the compounds, including reference compounds, were measured in the apical-to-basolateral (AB) direction. The donor and receiver wells were sampled immediately after application of the compound to the donor well to determine baseline concentrations, and again after 1 h. Quantification was done using high-performance liquid chromatography combined with mass spectrometry (HPLC-MS/MS) analysis and monolayer integrity was verified by analyzing the receiver samples for LuY fluorescence in a plate reader.
# [3] = PBPK food effect modeling (Simcyp V17.1 and/or GastroPlus V9.5; Model 1 / Model 2); parameters: species or system human
# [4] = Solubility measurement in aqueous buffer solutions; settings: for solubility: pH 6.5, aqueous buffer, thermodynamic from solid
# Procedure: (§1) The solubility of the drug substances was determined in biorelevant media as well as in aqueous buffers at different pH. Fasted state simulated gastric fluid (FaSSGF) ([37]), fasted state simulated intestinal fluid (FaSSIF-V2) ([38]), and fed state simulated intestinal fluid (FeSSIF-V2) ([39]) were prepared according to the instructions provided by Biorelevant (Biorelevant.com Ltd., London, UK). […] For neutral compounds, solubility was determined at pH 2, pH 4, and pH 7.
# (§2) For freely soluble compounds, the extent of solubilization was measured only up to 10 mg/mL.
# Caco-2 = settings: cited from earlier work
# [5] = parameters: method as in Table I reference column; settings: not generated within this working group; ref Table I; cited from earlier work
# BCS classification = type: physicochemical
# [6] = cited from earlier work; for Solubility at pH 6.5: not generated within this working group, ref Table I
# [7] = Solubility measurement in biorelevant media (FaSSIF-V2, FeSSIF-V2); settings: for solubility: 37 °C, thermodynamic from solid
# Procedure: as §1, §2
# [8] = Model 1, fasted, ref published clinical data (Table I)
# [9] = Model 1, fed, ref published clinical data (Table I)
# [10] = Model 1, ref published clinical data (Table I)
# [11] = Model 2, fasted, ref published clinical data (Table I)
# [12] = Model 2, fed, ref published clinical data (Table I)
# [13] = Model 2, ref published clinical data (Table I)
# [14] = clinically observed PK change (AUC, Cmax) fed vs fasted, compiled by literature search
# [15] = direction, AUC and/or Cmax ratio fed to fasted, BE criteria 0.8–1.25, ref drug label
# [16] = not generated within this working group, ref Table I
# [17] = FaSSIF-V2 (fasted state simulated intestinal fluid), FaSSIF solubility
# [18] = FeSSIF-V2 (fed state simulated intestinal fluid), FeSSIF solubility
# [19] = micronized formulation, healthy volunteers, high-fat breakfast
SMILES,"pKa (pKa; pKa (b, basic))","Effective permeability ([2]; human, 1 h) [nm/s]",AUC Ratio of Ratios (Sim'd / Obs'd) ([3]; Model 2),Cmax Ratio of Ratios (Sim'd / Obs'd) ([3]; Model 2),"Observed AUC(0-inf) Fasted [1, 8] [µg·h/mL]","Observed Cmax Fasted [1, 8] [µg/mL]","Observed AUC(0-inf) Fed [1, 9] [µg·h/mL]","Observed Cmax Fed [1, 9] [µg/mL]","Observed AUC Ratios (Fed/Fasted) [1, 10]","Observed AUC(0-inf) Fasted [1, 11] [µg·h/mL]","Observed Cmax Fasted [1, 11] [µg/mL]","Observed AUC(0-inf) Fed [1, 12] [µg·h/mL]","Observed Cmax Fed [1, 12] [µg/mL]","Observed AUC Ratios (Fed/Fasted) [1, 13]","Observed Cmax Ratios (Fed/Fasted) [1, 13]","Food Effect [1, 14]","Food Effect [1, 15]",solubility [4] [µg/mL],FaSSIF solubility [5],FeSSIF solubility [5],other results
NNC(=O)c1ccncc1 [Isoniazid],1.8,4000,0.91,1.46,24.6,5,19.5,2.5,0.79,18.5,5.87,14.8,2.73,0.80,0.47,Negative (negative if ratio fasted > fed),Negative (negative if ratio fasted > fed),128000,–,–,"Observed Cmax Ratios (Fed/Fasted) [1, 10]: 0.50; AUC Ratio of Ratios (Sim'd / Obs'd) ([3]; Model 1): 1.08; Cmax Ratio of Ratios (Sim'd / Obs'd) ([3]; Model 1): 1.48; Apparent permeability (Caco-2) (Caco-2; [16]): 16 (Caco-2)^^ × 10^−6 cm/s"
CC(C)(C)c1nc(-c2cccc(NS(=O)(=O)c3c(F)cccc3F)c2F)c(-c2ccnc(N)n2)s1 [Dabrafenib],2.2,–,–,–,–,–,–,–,–,12.1,2.16,8.47,1.07,0.70,0.49,–,Negative (negative if ratio fasted > fed),1,6.2^^ μg/ml,6.8^^ μg/ml,"pKa (pKa; pKa (a, acidic)): 6.6"
CCc1nn(CCCN2CCN(c3cccc(Cl)c3)CC2)c(=O)n1CCOc1ccccc1 [Nefazodone HCl],–,2200,1.47,1.05,1.54,0.301,1.24,0.295,0.80,1.54,0.301,1.24,0.295,0.80,0.98,–,Negative (negative if ratio fasted > fed),5380,–,–,"pKa (b, basic) (pKa): 6.50b; Observed Cmax Ratios (Fed/Fasted) [1, 10]: 0.98; food effect (FE) direction ([1]; ref drug label): negative FE; AUC Ratio of Ratios (Sim'd / Obs'd) ([3]; Model 1): 0.97; Cmax Ratio of Ratios (Sim'd / Obs'd) ([3]; Model 1): 0.84; solubility [7, 17]: 1390 µg/mL; solubility [7, 18]: 3100 µg/mL; Apparent permeability (Caco-2) (Caco-2; [16]): 11 (Caco-2) ^^ × 10^−6 cm/s"
COCCc1ccc(OCC(O)CNC(C)C)cc1 (stereo not drawn) [Metoprolol],–,–,–,–,0.302,0.111,0.426,0.148,–,–,–,–,–,–,–,–,–,17100,–,–,–
CC1(C)CCC(CN2CCN(c3ccc(C(=O)NS(=O)(=O)c4ccc(NCC5CCOCC5)c([N+](=O)[O-])c4)c(Oc4cnc5[nH]ccc5c4)c3)CC2)=C(c2ccc(Cl)cc2)C1 [Venetoclax],10.3,–,0.79,0.75,–,–,–,–,–,2.08,0.15,7.1,0.5,3.41,3.33,Positive (positive if the ratio of fed > fasted),Positive (positive if the ratio of fed > fasted),6,–,–,"pKa (pKa; pKa (a, acidic)): 3.4; solubility [7, 17]: 0.0337 µg/mL; solubility [7, 18]: 26.4 µg/mL"
Cc1ccc(-c2ncc(Cl)cc2-c2ccc(S(C)(=O)=O)cc2)cn1 [Etoricoxib],4.5,4800,1.06,1.25,44.4,2.89,42.2,1.89,0.95,44.4,2.89,42.2,1.89,0.95,0.65,Negative (negative if ratio fasted > fed),Negative (negative if ratio fasted > fed),–,67^^ μg/ml,95^^ μg/ml,"Observed Cmax Ratios (Fed/Fasted) [1, 10]: 0.65; food effect (FE) direction ([1]; ref drug label): negative FE; AUC Ratio of Ratios (Sim'd / Obs'd) ([3]; Model 1): 1.05; Cmax Ratio of Ratios (Sim'd / Obs'd) ([3]; Model 1): 0.97; Apparent permeability (Caco-2) (Caco-2; [16]): 52.3 (Caco-2)^^ × 10^−6 cm/s; Solubility at pH 6.5 [6]: 67^^ μg/ml"
C[C@@H](O[C@H]1OCCN(Cc2n[nH]c(=O)[nH]2)[C@H]1c1ccc(F)cc1)c1cc(C(F)(F)F)cc(C(F)(F)F)c1 [Aprepitant],2.45,2400,–,–,–,–,–,–,–,8.57,0.496,24.1,1.1,–,–,–,–,–,5.4 µg/mL,92.4 µg/mL,"pKa (pKa; pKa (a, acidic)): 9.15; BCS (BCS classification): II/IV; AUC observed, fasted ([1]; 100 mg micronized): 8.571 µg·h/mL; AUC observed, fed ([1]; 100 mg micronized): 24,057 ng.h/ml; Cmax observed, fasted ([1]; 100 mg micronized): 0.496 µg/mL; Cmax observed, fed ([1]; 100 mg micronized): 1.098 µg/mL; Food Effect ([1]; Micronized, fed vs fasted, compiled by literature search): Positive (positive if the ratio of fed > fasted); Food Effect ([1]; Nanonized, fed vs fasted, compiled by literature search): None (none if no significant change in AUC and Cmax with food); increase in AUC with food [1, 19]: 2.8 fold; increase in Cmax with food [1, 19]: 2.2 fold; Solubility at pH 6.5 [6]: 0.7 μg/ml; solubility in US Pharmacopeia Simulated Intestinal Fluids (SIFsp) ([6]; pH 6.8): 0.7 µg/mL; solubility in water ([6]; pH 8.0, thermodynamically stable form): 7 µg/mL"

# Now from value to molecule, other results behind:
"pKa (pKa; pKa (b, basic))","Effective permeability ([2]; human, 1 h) [nm/s]",AUC Ratio of Ratios (Sim'd / Obs'd) ([3]; Model 2),Cmax Ratio of Ratios (Sim'd / Obs'd) ([3]; Model 2),SMILES,"Observed AUC(0-inf) Fasted [1, 8] [µg·h/mL]","Observed Cmax Fasted [1, 8] [µg/mL]","Observed AUC(0-inf) Fed [1, 9] [µg·h/mL]","Observed Cmax Fed [1, 9] [µg/mL]","Observed AUC Ratios (Fed/Fasted) [1, 10]","Observed AUC(0-inf) Fasted [1, 11] [µg·h/mL]","Observed Cmax Fasted [1, 11] [µg/mL]","Observed AUC(0-inf) Fed [1, 12] [µg·h/mL]","Observed Cmax Fed [1, 12] [µg/mL]","Observed AUC Ratios (Fed/Fasted) [1, 13]","Observed Cmax Ratios (Fed/Fasted) [1, 13]","Food Effect [1, 14]","Food Effect [1, 15]",solubility [4] [µg/mL],FaSSIF solubility [5],FeSSIF solubility [5],other results
6,700,0.58,0.66,Cc1c(O)cccc1C(=O)N[C@@H](CSc1ccccc1)[C@H](O)CN1C[C@H]2CCCC[C@H]2C[C@H]1C(=O)NC(C)(C)C [Nelfinavir mesylate],–,–,–,–,–,7.08,0.895,35.8,3.91,5.06,4.37,Positive (positive if the ratio of fed > fasted),Positive (positive if the ratio of fed > fasted),–,22^^ μg/ml,243^^ μg/ml,BCS (BCS classification): II/IV; food effect (FE) direction ([1]; ref drug label): positive FE; Solubility at pH 6.5 [6]: 41.4^^ μg/ml
9,2300,1.25,1.42,Cc1[nH]c2ccccc2c1CCNCc1ccc(/C=C/C(=O)NO)cc1 [Panobinostat],0.148,0.0175,0.124,0.0098,0.84,0.128,0.0175,0.108,0.0098,0.85,0.56,None (none if no significant change in AUC and Cmax with food),None (none if no significant change in AUC and Cmax with food),–,140^^ μg/ml,230^^ μg/ml,"pKa (pKa; pKa (a, acidic)): 8.35; Observed Cmax Ratios (Fed/Fasted) [1, 10]: 0.56; AUC Ratio of Ratios (Sim'd / Obs'd) ([3]; Model 1): 1.25; Cmax Ratio of Ratios (Sim'd / Obs'd) ([3]; Model 1): 0.61; Apparent permeability (Caco-2) (Caco-2; [16]): 11 (Caco-2)^^ × 10^−6 cm/s; Solubility at pH 6.5 [6]: 261^^ μg/ml"
–,–,1.05,0.88,Cl.O=C1Cc2cc(CCN3CCN(c4nsc5ccccc45)CC3)c(Cl)cc2N1 [Ziprasidone HCl],–,–,–,–,–,–,–,–,–,–,–,–,–,–,–,–,"Food Effect (graded symbols) ([1]; human, in vivo): ++; Observed AUC Ratios (Fed/Fasted) ([1]; human, in vivo): 2.01; Observed AUC(0-inf) Fasted ([1]; human, in vivo): 0.95 µg·h/mL; Observed AUC(0-inf) Fed ([1]; human, in vivo): 1.91 µg·h/mL; Observed Cmax Fasted ([1]; human, in vivo): 0.084 µg/mL; Observed Cmax Fed ([1]; human, in vivo): 0.165 µg/mL; Observed Cmax Ratios (Fed/Fasted) ([1]; human, in vivo): 1.96; Effective permeability [2]: 2300 nm/s; FaSSIF solubility ([7]; 37°C): 4 µg/mL; FeSSIF solubility ([7]; 37°C): 13 µg/mL; Solubility at pH 6.5 ([4]; room temperature): 1 μg/ml; Apparent permeability (Caco-2) (Caco-2; Caco-2): 12.3 (Caco-2)^^ × 10^−6 cm/s"
